Data reported in patent US4256742A, “Antidepressant oxime ethers of dibenzocycloheptaziridones” (E. I. Du Pont de Nemours and Company, priority 1979, dated 1981).
Structures can show the parent of a compound that is named as a salt. Where two headings read alike, the source gives them in different places.

How the values were obtained:
[1] = tested on: tetrabenazine-induced sedation and depression; assay: Antitetrabenazine test: prevention of tetrabenazine-induced sedation and ptosis in mice; type: in vivo, mice (Carworth CF1 S female); conditions: tetrabenazine 32 mg/kg i.p. 30 min later, examined 1 h after antagonist; for ED50: Mus musculus
Protocol: This mouse test is predictive of human antidepressant response (Everett, "The Dopa Response Petentiation Test and Its Use in Screening for Antidepressant Drugs", pp. 164-167 in "Antidepressant Drugs" [Proceedings of the First International Symposium], S. Garattini and M. N. G. Dukes, eds. 1967).
Groups of 10 Carworth CF1 S female mice, 18-21 g each, were fasted 1.5 hours and were intubated with antagonist compounds at oral doses of 0, 0.33, 1, 3, 9, 27, and 81 mg/kg in 0.20 ml of 1% Methocel. The mice were challenged 30 minutes later with tetrabenazine (as the methane-sulfonate),32 mg/kg intraperitoneally (dissolved in 0.20 ml 0.05 M KCl at pH 2.0). One hour after antagonist (30 minutes after tetrabenazine), the mice were examined for signs of exploratory activity and ptosis (eyelid closure). Normal exploratory activity (relief from sedation) was recorded when a mouse lifted by the tail from a group of 10 in a testing box and placed on a stainless steel testing box lid (12.5"×8" with 0.33" mesh) either turned its head horizontally 30° in both directions or moved to the edge of the screen within 10 seconds after being placed on the screen. Relief from ptosis was recorded when exactly two seconds after placing the mouse facing the observer, lid closure was less than 50% in both eyes. Table 1 gives the results in mg/kg for examples of the invention and for the established standard antidepressant, amitriptyline.

[2] = Water solubility of the salts; type: physicochemical; conditions: salt as isolated
[3] = oral, female mice, normal exploratory activity (relief from sedation), read-out: ED50 in antitetrabenazine test, blockade of exploratory loss (Explor.)
[4] = oral, female mice, relief from ptosis, read-out: ED50 in antitetrabenazine test, blockade of ptosis
[5] = po, 1 h, read-out: ED50 in antitetrabenazine test, blockade of exploratory loss (Explor.), oral, female mice, normal exploratory activity (relief from sedation)
[6] = po, 1 h, read-out: ED50 in antitetrabenazine test, blockade of ptosis, oral, female mice, relief from ptosis

## CN(C)CCON=C1c2ccccc2C2C(c3ccccc31)N2C(=O)c1ccccc1 (stereo not shown) [R^2=CH2 CH2 N(CH3)2; R^1=drawing 44; Z=--]
[1]; [3]
  ED50: 5.5 mg/kg
[1]; [4]
  ED50: 5.2 mg/kg

## CN(C)CCCON=C1c2ccccc2C2NC2c2ccccc21 (stereo not shown) [Example 9]
[1]; [5]
  ED50: 32 mg/kg
[1]; [6]
  ED50: 18 mg/kg

## CN(C)CCC=C1c2ccccc2CCc2ccccc21 [AMTRIPTYLINE, amitriptyline, reference compound]
[1]; [3]
  ED50: 2.6 mg/kg
[1]; [4]
  ED50: 1.2 mg/kg

## NCCON=C1c2ccccc2C2NC2c2ccccc21 (stereo not shown) [Example 19]
[1]; oral, female mice, normal exploratory activity (relief from sedation), listed as R^2=CH2 CH2 NH2, R^1=H, Z=drawing 41, 60 min
  ED50 in antitetrabenazine test, blockade of exploratory loss (Explor.): 14. mg/kg
[1]; oral, female mice, relief from ptosis, listed as R^2=CH2 CH2 NH2, R^1=H, Z=drawing 41, 60 min
  ED50 in antitetrabenazine test, blockade of ptosis: 3.4 mg/kg
[2]
  water solubility (in words): Water Soluble

## c1ccc2c(c1)C(=NOCCN1CCCCC1)c1ccccc1C1NC21 (stereo not shown) [R^2=drawing 45; R^1=H; Z=--]
[1]; [5]
  ED50: > 81 mg/kg
[1]; [6]
  ED50: 8.3 mg/kg

## NCCON=C1c2ccccc2C2NC2c2ccccc21 (stereo not shown) [Example 7]
[1]; oral, female mice, normal exploratory activity (relief from sedation), listed as R^2=CH2 CH2 NH2, R^1=H, Z=--, 60 min
  ED50 in antitetrabenazine test, blockade of exploratory loss (Explor.): 6.6 mg/kg
[1]; oral, female mice, relief from ptosis, listed as R^2=CH2 CH2 NH2, R^1=H, Z=--, 60 min
  ED50 in antitetrabenazine test, blockade of ptosis: 1.3 mg/kg

## CC(=O)N1C2c3ccccc3C(=NOCCN(C)C)c3ccccc3C21 (stereo not shown) [R^2=CH2 CH2 N(CH3)2; R^1=drawing 43; Z=--]
[1]; [3]
  ED50: 19 mg/kg
[1]; [4]
  ED50: 13 mg/kg

## CN(C)CCON=C1c2ccccc2C2NC2c2ccccc21 (stereo not shown) [Example 2, O-[2-(Dimethylamino)ethyl]oxime of 1a,10b-dihydrodibenzo[3,4,6,7]cyclohept[1,2-b]azirin-6(1H)-one]
[1]; oral, female mice, normal exploratory activity (relief from sedation), listed as R^2=CH2 CH2 N(CH3)2, R^1=H, Z=--, 60 min
  ED50 in antitetrabenazine test, blockade of exploratory loss (Explor.): 1.1 mg/kg
[1]; oral, female mice, relief from ptosis, listed as R^2=CH2 CH2 N(CH3)2, R^1=H, Z=--, 60 min
  ED50 in antitetrabenazine test, blockade of ptosis: 0.65 mg/kg

## CN(C)CCON=C1c2ccccc2C2C(c3ccccc31)N2C (stereo not shown) [Example 3, O-[2-(Dimethylamino)ethyl]oxime of 1a,10b-Dihydrodibenzo-[3,4,6,7]cyclohept[1,2-b]-N-methylazirin-6(1H)-one]
[1]; [6]
  ED50: 0.65 mg/kg
[1]; oral, female mice, normal exploratory activity (relief from sedation), listed as R^2=CH2 CH2 N(CH3)2, R^1=CH3, Z=--, 60 min
  ED50 in antitetrabenazine test, blockade of exploratory loss (Explor.): 0.93 mg/kg

## CCCCNCCON=C1c2ccccc2C2NC2c2ccccc21 (stereo not shown) [Example 15]
[1]; [5]
  ED50: > 81 mg/kg
[1]; [6]
  ED50: 13.3 mg/kg

## CNCCON=C1c2ccccc2C2NC2c2ccccc21 (stereo not shown) [Example 20]
[1]; oral, female mice, normal exploratory activity (relief from sedation), listed as R^2=CH2 CH2 NHCH3, R^1=H, Z=drawing 42, 60 min
  ED50 in antitetrabenazine test, blockade of exploratory loss (Explor.): 6.2 mg/kg
[1]; oral, female mice, relief from ptosis, listed as R^2=CH2 CH2 NHCH3, R^1=H, Z=drawing 42, 60 min
  ED50 in antitetrabenazine test, blockade of ptosis: 1.3 mg/kg
[2]
  water solubility (in words): Water Soluble

## CN(C)CCON=C1c2ccccc2C2C(c3ccccc31)N2CC1CCC1 (stereo not shown) [Example 22]
[1]; [5]
  ED50: 16 mg/kg
[1]; [6]
  ED50: 10.8 mg/kg

## CCNCCON=C1c2ccccc2C2NC2c2ccccc21 (stereo not shown) [Example 14]
[1]; [5]
  ED50: 9 mg/kg
[1]; [6]
  ED50: 4.3 mg/kg

## CN(C)CCON=C1c2ccccc2C2NC2c2ccccc21 (stereo not shown) [Example 18]
[1]; oral, female mice, normal exploratory activity (relief from sedation), listed as R^2=CH2 CH2 N(CH3)2, R^1=H, Z=. HCl, 60 min
  ED50 in antitetrabenazine test, blockade of exploratory loss (Explor.): 2.2 mg/kg
[1]; oral, female mice, relief from ptosis, listed as R^2=CH2 CH2 N(CH3)2, R^1=H, Z=. HCl, 60 min
  ED50 in antitetrabenazine test, blockade of ptosis: 1.0 mg/kg
[2]
  water solubility (in words): Water Soluble

## CN(C)CCON=C1c2ccccc2C2C(c3ccccc31)N2CC1CC1 (stereo not shown) [Example 21]
[1]; [5]
  ED50: 11.8 mg/kg
[1]; [6]
  ED50: 10.8 mg/kg

## CN(C)CCON=C1c2ccccc2C2NC2c2ccccc21 (stereo not shown) [Example 17]
[1]; oral, female mice, normal exploratory activity (relief from sedation), listed as R^2=CH2 CH2 N(CH3)2, R^1=H, Z=. Tartrate, 60 min
  ED50 in antitetrabenazine test, blockade of exploratory loss (Explor.): 0.57 mg/kg
[1]; oral, female mice, relief from ptosis, listed as R^2=CH2 CH2 N(CH3)2, R^1=H, Z=. Tartrate, 60 min
  ED50 in antitetrabenazine test, blockade of ptosis: 0.33 mg/kg
[2]
  water solubility (in words): Water Soluble

## c1ccc2c(c1)C(=NOCCN1CCOCC1)c1ccccc1C1NC21 (stereo not shown) [R^2=drawing 46; R^1=H; Z=--]
[1]; [5]
  ED50: 16 mg/kg
[1]; [6]
  ED50: 5.2 mg/kg

## CN(C)CCON=C1c2ccccc2C2C(c3ccccc31)N2C (stereo not shown) [Example 16, Tartaric acid Salt of O-[2-(dimethylamino)ethyl]oxime of 1a, 10b-dihydrodibenzo[3,4,6,7]cyclohept[1,2-b]-N-methylazirin-6(1H)-one]
[1]; oral, female mice, normal exploratory activity (relief from sedation), listed as R^2=CH2 CH2 N(CH3)2, R^1=CH3, Z=. Tartrate, 60 min
  ED50 in antitetrabenazine test, blockade of exploratory loss (Explor.): 2.7 mg/kg
[1]; oral, female mice, relief from ptosis, listed as R^2=CH2 CH2 N(CH3)2, R^1=CH3, Z=. Tartrate, 60 min
  ED50 in antitetrabenazine test, blockade of ptosis: 0.93 mg/kg
[2]
  water solubility (in words): watersoluble

## CNCCON=C1c2ccccc2C2NC2c2ccccc21 (stereo not shown) [Example 8]
[1]; oral, female mice, normal exploratory activity (relief from sedation), listed as R^2=CH2 CH2 NHCH3, R^1=H, Z=--, 60 min
  ED50 in antitetrabenazine test, blockade of exploratory loss (Explor.): 1.9 mg/kg
[1]; oral, female mice, relief from ptosis, listed as R^2=CH2 CH2 NHCH3, R^1=H, Z=--, 60 min
  ED50 in antitetrabenazine test, blockade of ptosis: 0.57 mg/kg
